In US5061794A, “Cephalosporin derivatives, and antibacterial agents” (priority 1986, dated 1991):
In brackets after ≈: the same amount, converted by molar mass. Where two headings read alike, the source gives them in different places.

Tests used:
A. calcoaceticus No. 4 = assay: in vitro antibacterial activity, agar plate dilution method (MIC); assay type: cell-based, Acinetobacter calcoaceticus; conditions: Acinetobacter calcoaceticus, NO.4, 16 h, 10^6 CFU/ml
Method in brief: (§1)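 Overnight Mueller Hinton broth cultures were inoculated onto Mueller Hinton agar containing serial antibiotic concentrations at 10^6 CFU/ml. Plates were incubated at 37° C. for 16 hours, and MIC (μg/ml) was recorded.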

K. pneumoniae No. 42 = assay: as above; assay type: cell-based; conditions: Klebsiella pneumoniae, NO.42, 16 h, read-out: Minimum Inhibitory Concentration (MIC), *K. pneumoniae No. 42, lactamase-producing strain; 10^6 CFU/ml
Method in brief: as §1

S. marcescens No. 16-2 = assay: as above; assay type: cell-based; conditions: Serratia marcescens, NO.162, 16 h, 10^6 CFU/ml
Method in brief: as §1

K. oxytoca GN10650 = assay: as above; assay type: cell-based; conditions: Klebsiella oxytoca, GN10650, 16 h, read-out: Minimum Inhibitory Concentration (MIC), *K. oxytoca GN10650, lactamase-producing strain; 10^6 CFU/ml
Method in brief: as §1

P. vulgaris No. 33 = assay: as above; assay type: cell-based; conditions: Proteus vulgaris, NO.33, 16 h, read-out: Minimum Inhibitory Concentration (MIC), *P. vulgaris No. 33, lactamase-producing strain; 10^6 CFU/ml
Method in brief: as §1

P. vulgaris HX-19 = assay: as above; assay type: cell-based; conditions: Proteus vulgaris, HX19, 16 h, P. vulgaris HX-19; 10^6 CFU/ml; read-out: Minimum Inhibitory Concentration (MIC)
Method in brief: as §1

S. aureus 209P NIHJ-JC1 = assay: as above; assay type: cell-based; conditions: Staphylococcus aureus, 16 h, 10^6 CFU/ml, 37° C., 16 hours
Method in brief: as §1

S. marcescens IAM 1184 = assay: as above; assay type: cell-based; conditions: Serratia marcescens, IAM1184, 16 h, read-out: Minimum Inhibitory Concentration (MIC)
Method in brief: as §1

K. pneumoniae PCI-602 = assay: as above; assay type: cell-based; conditions: Klebsiella pneumoniae, PCI602, 16 h, 10^6 CFU/ml
Method in brief: as §1

E. coli NIHJ JC2 = assay: as above; assay type: cell-based; conditions: Escherichia coli, NIHJJC2, 16 h, read-out: Minimum Inhibitory Concentration (MIC), E. coli NIHJ JC2, 10^6 CFU/ml, 37° C.
Method in brief: as §1

E. coli GN5482 = assay: as above; assay type: cell-based; conditions: Escherichia coli, GN5482, 16 h, read-out: Minimum Inhibitory Concentration (MIC)
Method in brief: as §1

M. morganii GN5407 = assay: as above; assay type: cell-based; conditions: Morganella morganii, GN5407, 16 h, read-out: Minimum Inhibitory Concentration (MIC), *M. morganii GN5407, lactamase-producing strain; 10^6 CFU/ml
Method in brief: as §1

E. cloacae 963 = assay: as above; assay type: cell-based; conditions: 10^6 CFU/ml
Method in brief: as §1

E. cloacae Nek 39 = assay: as above; assay type: cell-based; conditions: Enterobacter cloacae, NEK39, 16 h, 10^6 CFU/ml
Method in brief: as §1

Ps. cepacia 23 = assay: as above; assay type: cell-based, Pseudomonas cepacia; conditions: read-out: Minimum Inhibitory Concentration (MIC)
Method in brief: as §1

Ps. aeruginosa AKR17 = assay: as above; assay type: cell-based, Pseudomonas aeruginosa; conditions: Pseudomonas aeruginosa, 16 h; Ps. aeruginosa AKR17; 10^6 CFU/ml; read-out: Minimum Inhibitory Concentration (MIC)
Method in brief: as §1

Ps. aeruginosa AK 109 = assay: as above; assay type: cell-based, Pseudomonas aeruginosa; conditions: Pseudomonas aeruginosa, AK109, 16 h, 10^6 CFU/ml
Method in brief: as §1

Ps. aeruginosa IF03445 = assay: as above; assay type: cell-based, Pseudomonas aeruginosa; conditions: Pseudomonas aeruginosa, 10^6 CFU/ml
Method in brief: as §1

E. coli CSH(RE45) = assay: microbe, parasite or virus in culture; assay type: cell-based; conditions: Escherichia coli, 16 h, read-out: Minimum Inhibitory Concentration (MIC), *E. coli CSH(RE45), lactamase-producing strain; 10^6 CFU/ml
Method in brief: as §1

E. coli CSH2 (RK1) = assay: microbe, parasite or virus in culture; assay type: cell-based; conditions: Escherichia coli, 16 h, read-out: Minimum Inhibitory Concentration (MIC), *E. coli CSH2 (RK1), lactamase-producing strain; 10^6 CFU/ml
Method in brief: as §1

[1] = read-out: Minimum Inhibitory Concentration (MIC), A. calcoaceticus No. 4
[2] = read-out: Minimum Inhibitory Concentration (MIC), S. aureus 209P NIHJ-JC1
[3] = read-out: Minimum Inhibitory Concentration (MIC), K. pneumoniae PCI-602
[4] = read-out: Minimum Inhibitory Concentration (MIC), *E. cloacae Nek 39, lactamase-producing strain
[5] = Burkholderia cepacia, 16 h, Ps. cepacia 23, 10^6 CFU/ml
[6] = Ps. aeruginosa AK 109, read-out: Minimum Inhibitory Concentration (MIC)
[7] = 16 h, Ps. aeruginosa IF03445, read-out: Minimum Inhibitory Concentration (MIC)
[8] = *S. marcescens No. 16-2, lactamase-producing strain, read-out: Minimum Inhibitory Concentration (MIC)
[9] = Enterobacter cloacae, 963, 16 h, read-out: Minimum Inhibitory Concentration (MIC), E. cloacae 963

| Structure (SMILES) | MIC (A. calcoaceticus No. 4; [1]) [µg/mL] | MIC (K. pneumoniae No. 42) [µg/mL] | MIC (K. oxytoca GN10650) [µg/mL] | MIC (P. vulgaris No. 33) [µg/mL] | MIC (P. vulgaris HX-19) [µg/mL] | MIC (S. aureus 209P NIHJ-JC1; [2]) [µg/mL] | MIC (K. pneumoniae PCI-602; [3]) [µg/mL] | MIC (E. coli NIHJ JC2) [µg/mL] | MIC (E. coli GN5482) [µg/mL] | MIC (M. morganii GN5407) [µg/mL] | MIC (E. cloacae Nek 39; [4]) [µg/mL] | MIC (Ps. cepacia 23; [5]) [µg/mL] | MIC (Ps. aeruginosa AKR17) [µg/mL] | MIC (Ps. aeruginosa AK 109; [6]) [µg/mL] | MIC (Ps. aeruginosa IF03445; [7]) [µg/mL] | MIC (E. coli CSH(RE45)) [µg/mL] | MIC (E. coli CSH2 (RK1)) [µg/mL] | MIC (S. marcescens No. 16-2; [8]) [µg/mL] | MIC (S. marcescens IAM 1184) [µg/mL] | MIC (E. cloacae 963; [9]) [µg/mL] | other results |
| --- | --- | --- | --- | --- | --- | --- | --- | --- | --- | --- | --- | --- | --- | --- | --- | --- | --- | --- | --- | --- | --- |
| CCO/N=C(\C(=O)N[C@@H]1C(=O)N2C(C(=O)O)=C(CSc3nnc(-c4ccc(OC(C)=O)c(OC(C)=O)c4)o3)CS[C@H]12)c1csc(N)n1 [Ex. 6, sodium 3-[5-(3,4-diacetoxyphenyl)-1,3,4-oxadiazol-2-yl]thiomethyl-78-[2-(2-aminothiazol-4-yl)-2-ethoxyiminoacetamido]-3-cephem-4-carboxylate] | 0.1 | 0.025 | 0.39 | 0.0125 | < 0.006 | 1.56 | < 0.006 | 0.05 | 0.39 | 0.0125 | 0.05 | 0.05 | > 100 | 0.1 | 0.2 | 0.78 | 0.0125 | – | – | – | MIC (S. marcescens No. 16-2; read-out: Minimum Inhibitory Concentration (MIC), *S. marcescens No. 16-2, lactamase-producing strain): 0.78 µg/mL; MIC (S. marcescens IAM 1184; S. marcescens IAM 1184, 10^6 CFU/ml): < 0.006 µg/mL; MIC (E. cloacae 963; Enterobacter cloacae, 16 h, E. cloacae 963, read-out: Minimum Inhibitory Concentration (MIC)): < 0.006 µg/mL |
| CC(C)(O/N=C(\C(=O)N[C@@H]1C(=O)N2C(C(=O)O)=C(CSc3ncc(-c4ccc(O)cc4)o3)CS[C@H]12)c1csc(N)n1)C(=O)O [compound 24, disodium 7β-[2-(2-aminothiazol-4-yl)-2-(1-carboxylate-1-methylethoxyimino)acetamido]-3-[5-(4-hydroxyphenyl)oxazol-2-yl]thiomethyl-3-cephem-4-carboxylate, reference compound] | – | 12.5 | 6.25 | 0.39 | < 0.006 | 6.25 | – | 12.5 | 3.12 | 6.25 | – | – | > 100 | 25 | 25 | 3.12 | 3.12 | 25 | 3.12 | 12.5 | MIC (A. calcoaceticus No. 4; A. calcoaceticus No. 4, read-out: Minimum Inhibitory Concentration (MIC)): > 100 µg/mL; MIC (K. pneumoniae PCI-602; K. pneumoniae PCI-602, read-out: Minimum Inhibitory Concentration (MIC)): 0.2 µg/mL; MIC (E. cloacae Nek 39; *E. cloacae Nek 39, lactamase-producing strain, read-out: Minimum Inhibitory Concentration (MIC)): 25 µg/mL; MIC (Ps. cepacia 23; Burkholderia cepacia, 23, 16 h): 6.25 µg/mL |
| CC(C)(O/N=C(\C(=O)N[C@@H]1C(=O)N2C(C(=O)O)=C(CSc3nc(-c4ccc(O)cc4)c(CC(=O)O)s3)CS[C@H]12)c1csc(N)n1)C(=O)O [compound 19, reference compound] | 6.25 (≈ 8.51 µM) | 1.56 (≈ 2.12 µM) | 1.56 (≈ 2.12 µM) | 0.05 (≈ 0.068 µM) | < 0.006 | – | 0.39 (≈ 0.531 µM) | 3.12 (≈ 4.25 µM) | 3.12 (≈ 4.25 µM) | 1.56 (≈ 2.12 µM) | 6.25 (≈ 8.51 µM) | 0.2 (≈ 0.272 µM) | 25 (≈ 34 µM) | – | – | 1.56 (≈ 2.12 µM) | 1.56 (≈ 2.12 µM) | 25 (≈ 34 µM) | 0.78 (≈ 1.06 µM) | 3.12 (≈ 4.25 µM) | MIC (S. aureus 209P NIHJ-JC1; S. aureus 209P NIHJ-JC1, read-out: Minimum Inhibitory Concentration (MIC)): 50 µg/mL (≈ 68 µM); MIC (Ps. aeruginosa AK 109; read-out: Minimum Inhibitory Concentration (MIC), Ps. aeruginosa AK 109): 6.25 µg/mL (≈ 8.51 µM); MIC (Ps. aeruginosa IF03445; IF03445, 16 h, read-out: Minimum Inhibitory Concentration (MIC), Ps. aeruginosa IF03445): 12.5 µg/mL (≈ 17 µM) |
